Experiments:
[1] = test system: HeLa cells; experiment: Luciferase rAAV transduction of HeLa cells with LLnL / doxorubicin; type: cell-based
Protocol: (§1) C. To determine whether combinations of agents that enhance rAAV transduction efficiency have synergistic or additive effects when used in combination, cells were contacted with the proteosome modulator, doxorubicin, and the proteosome inhibitor Z-LLL or LLnL. Different AAV vectors were tested, including splicing vectors and pseudotyped rAAV. Viral stocks utilized were as follows: Av2RSVluc, 5×10^8 particle/μl; Av2RSVlucCap5 (also referred to as Av2/5 CMVLuc), 2×10^9 particle/μl; Av2CMVluc, 1.3×10^9 particle/μl; and Av2CMVlucCap5, 1.1×10^9 particle/μl. Combinations of agents were compared to the agents used alone to determine the efficiency of transduction. LLnL was used at 40, 200 or 400 μM, Z-LLL at 4 μM and doxorubicin at 0.5 or 1 μM when employed alone. When a combination of LLnL and doxorubicin was used, LLnL was used at 4, 10, 20, 40, 200 or 400 μM and doxorubicin at 1 or 5 μM. The apical surface of polarized airway epithelia, HeLa cells or ferret fibroblast was contacted with the agents and rAAV (5×10^9 particles per well).

[2] = test system: ferret fibroblast; experiment: rAAV transduction of ferret fibroblasts with LLnL / doxorubicin; type: cell-based; conditions: for concentration at which transduction is enhanced: ferret fibroblast
Protocol: as §1

[3] = test system: A549 cells; experiment: AV2Luc / AV2/5Luc transduction of A549 cells with LLnL / doxorubicin; type: cell-based, human
[4] = test system: HeLa cells; experiment: AAV2 FLAG-Luc transduction of HeLa cells (luciferase screen of agents); type: cell-based
Text: A. To screen for agents that enhance rAAV transduction, any number of cells can be used. A range of concentrations of the agent to be tested can be determined based on, for instance desirable profiles of the agent, desirable toxicity profiles of the agent and/or concentration of the agents employed in vivo. The usefulness of the cell type chosen for the screen can be confirmed by testing compounds, e.g., proteosome inhibitors described in Example 1 such as LLnL and ZLL which are known to increase rAAV transduction. For example, a AAV2 FLAG-Luc vector was employed to transduce HeLa, ferret fibroblasts, IB3 and Huh (liver) cells in the presence or absence of the proteosome inhibitor MG132. MG132 was confirmed to enhance AAV transduction in all cell types tested: HeLa cell transduction was enhanced about 500-fold at 80 μM, and 200-fold at 40 μM, MG132; ferret fibroblast cell transduction was enhanced about 200-fold at 20 μM, and 17-fold at 4 μM, MG132; IB3-1 cell transduction was enhanced about 30 to 70-fold at 20 to 80 μM MG132; and Huh-7 cell transduction was enhanced about 15-fold at 20 to 80 μM MG132. There was no difference in rAAV transduction efficiency in HeLa cells when either DMSO or ETOH was used as a vehicle for MG132. B. HeLa cells were selected to screen for additional agents that enhance rAAV transduction, although any cell strain or line; or primary cells, may be employed. […] The range of concentrations of the agents to be tested were selected based on solubility profiles, toxicity profiles and/or concentrations previously employed in vivo.
HeLa cells were infected for 2 hours with an MOI of 100 rAAV in the presence of agents, e.g., ritonavir (Norvir) (1, 10 and 100 μM), cyclosporin A (2.5, 25 and 250 μg/ml), epoxomicin (1, 10 and 50 μM), alcacinomycin A (5, 50 or 500 μM), chymostatin (1, 10 and 100 μM), bestatin (1, 10 and 100 μM), doxorubicin (adriamycin) (0.1, 1 and 10 μM), camptothecin (camptosar) (1, 10 and 100 μM), eicosapentanoic acid (1, 10 and 100 μM), tannic acid (2, 20, 200 and 2000 μM), simvastatin, prodrug (2, 20 and 200 μM), cisplatin (0.2, 2 and 20 μg/mL), and chloroquine (4, 40 and 400 μM). Forty-eight hours after infection, cells were harvested for analysis. rAAV transduction was measured by removing the media from the cell cultures, adding 100 μL reporter lysis buffer (RLB) and freezing. The supernatant was thawed and transferred to microfuge tubes, freeze thawed an additional 2 times, clarified by centrifugation for 10 minutes and then analyzed for reporter gene expression on the luminometer. Protein was determined by Bradford analysis and results were expressed as relative light units per mg protein (RLU/mg).
Based on results with doxorubicin, a small number of FDA approved anthracyclines were tested for their relative in vitro and in vivo activities on AAV transduction. HeLa cells were infected with 100 ppc AAV2FLAG-Luc for 2 hours in the presence of different anthracyclines, e.g., doxorubicin, daunarubicin (Cerubidine), epirubicin (Ellence™), and idarubicin (Idamycin®), and cells harvested 48 hours later. The anthracyclines were pharmaceutical grade, and prepared according to the manufacturer's instructions. Prior to use, the agents were diluted in sterile water to an equal mass, e.g., 0.6 μg/mL, 3 μg/mL and 6 μg/mL. For example, 3 μg/mL idamycin increased luciferase expression by over 5000-fold while doxorubin increased luciferase expression by 58-fold. Generally, the potency was as follows: idarubicin>daunarubicin>epirubicin>doxorubicin.

[5] = test system: polarized human airway epithelia; experiment: Luciferase rAAV2 / rAAV5-capsid transduction of polarized human airway epithelia; type: cell-based; conditions: for enhancement of transduction from the apical surface: LLnL 40 μM and/or Dox 5 μM at the time of infection; for concentration at which transduction is enhanced: polarized airway epithelial cells
[6] = test system: IB3 cells; experiment: AV2Luc / AV2/5Luc transduction and nuclear uptake in IB3 cells; type: cell-based, human; conditions: rAAV2-infected IB3 cells; 40 μM LLnL or 1 μM Dox; 24 hours
Protocol: LLnL and Z-LLL are two tripeptidyl aldehydes shown to inhibit calpains, cathepsins, cysteine proteases as well as the chymotrypsin-like protease activity of proteasomes (Wagner et al., 2002; Donkor, 2000; Sasaki et al., 1990). […] Both classes of proteasome inhibitors bind tightly to the proteasome complex. Dose response curves for these two proteasome-modulating agents were evaluated on IB3, A549, Hela, and primary fibroblasts. The responses were consistent for a number of cell lines and for three different promoters driving luciferase expression. For one set, CMV-driven luciferase constructs with an AAV2-based genome were employed that were packaged into AV2 or AV5 capsids. Cells were infected at various doses of AV2Luc and AV2/5Luc (MOIs 100 to 1000 particles/cell). At the time of infection, cells were treated with various concentrations of LLnL or Doxorubicin and gene expression was assayed at 24 hours post-infection. The effect of proteasome inhibitors on nuclear uptake of virus was evaluated using a previously-described protocol for fractionating viral DNA in the cytoplasm and nucleus (Xiao et al., 2002). Viral DNA content in the cytoplasmic and nuclear fractions was then evaluated by slot blot hybridization against a Luciferase DNA probe.

[7] = Toxicity of proteasome inhibitors in mice; type: in vivo, mouse; conditions: 10, 100, and 1000 fold higher effective doses; intra-tracheal and systemic (IV) delivery
Protocol: Long-term enhancement of rAAV transduction by proteasome inhibitor in vivo. To evaluate the potential utility of proteasome inhibitors for in vivo gene therapy, both the toxicity and efficacy of these agents for in vivo rAAV mediated gene transfer in the mouse lung was tested. To assess the toxicity of these proteasome inhibitors in mice, 10, 100, and 1000 fold higher effective doses of LLnL or Z-LLL were administered than used to induce gene transfer in polarized airway cells, using both intra-tracheal and systemic (IV) delivery. No toxicity was indicated by histologic evaluation of the lung and liver or was evidenced by the death of animals. To investigate whether these proteasome inhibitors could improve rAAV transduction in vivo, AV.LacZ (5×10^10 particles) was delivered either alone or in the presence of 400 μM Z-LLL by intranasal administration. Mouse lungs were harvested at 3, 10 and 150 days post-infection to evaluate short and long term effects. […] Targeted transgene expression was predominantly confined to the conducting airways, rather than in the parenchyma. Alveolar cells were rarely transduced. […] The range of transgene expression in distal and proximal airways was 0 to 4% and 5 to 18%, respectively.

[8] = test system: primary fetal fibroblasts; experiment: rAAV transduction of primary fetal fibroblasts with LLnL, Dox or both; type: cell-based; conditions: LLnL by itself
Protocol: Hela, A549, IB3, and primary fetal fibroblasts were evaluated for AV2Luc and AV2/5Luc transduction in the presence of LLnL, Dox, or LLnL+Dox at various concentrations. The data shown is from Hela and A549 cells at the most optimal dose combination that induces rAV2Luc transduction to a greater extent than each compound alone.

[9] = test system: polarized human bronchial epithelial cells; type: cell-based
Protocol: Primary culture of human bronchial epithelia and reagents utilized. Primary human airway epithelial cells were collected by enzymatic digestion of bronchial samples from lung transplants, as previously described (Kondo et al., 1991; Zabner et al., 1996). Isolated primary airway cells were seeded at a density of 5×10^5 cells/cm^2 onto collagen-coated Millicell-HA culture inserts (Millipore Corp., Bedford, Mass.). Primary cultures were grown at the air-liquid interface for more than 2 weeks, by which time differentiation into a mucociliary epithelium occurs. The culture medium, used to feed only the basolateral side of the cells, contained 49% DMEM, 49% Ham's F12 and 2% Ultraser G (BioSepra, Cedex, France). Dimethyl Sulphoxide (DMSO), camptothecin (Camp), etoposide (Etop), aphidicolin (Aphi), hydroxyurea (HU) and genistein (Geni) were purchased from Sigma (St. Louis, Mo.). Tripeptidyl aldehyde proteasome inhibitors N-Acetyl-L-Leucyl-L-Leucyl-Norleucine (LLnL) and benzyloxycarbonyl-L-leucyl-L-leucyl-L-leucinal (Z-LLL) were purchased from Calbiochem-Novabiochem Corporation (La Jolla, Calif.). Ubiquitin ligase (E3) inhibitors were obtained from Bachem Bioscience Inc. (King of Prussia, Pa.). Anti-AAV capsid monoclonal antibody (Anti-VP1, 2 and 3) was purchased from American Research Products (Belmont, Mass.) and anti-ubiquitin antibody was purchased from Santa Cruz Biotechnology Inc. (Santa Cruz, Calif.).
Transduction of polarized airway epithelial cells and primary human fibroblasts. rAAV infection of fully differentiated bronchial cells was performed as described in Duan et al. (1998). For infections from the apical surface of the airway cells, 5 μl rAAV was mixed with 50 μl of culture media and applied directly onto the apical compartment of Millicell inserts (MOI=10,000 particles/cell). During apical infection, the basolateral side of the Millicell was continuously bathed in culture media. Gene transfer to the basal side was performed by inverting Millicell inserts and applying viral vector to the bottom of the supporting filter membrane in a 50 μl volume for 2 hours. Subsequently, Millicell inserts were returned to the upright position, in the continued presence of the original viral inoculum plus an additional 450 μl of media. For both apical and basolateral infections, rAAV containing media was removed after 24 hours and replaced with either fresh culture media (for the basal side) or exposed to air (for the apical side). To test the effect of different agents on the efficiency of AAV transduction in polarized airway cells, 1 μl of each solution was mixed with AAV prior to infection of airway epithelia. Agents were usually presented during the 24 hours AAV infection period unless indicated otherwise. Most of the agents were dissolved in DMSO except for hydroxyurea (dissolved in phosphate buffered saline), H-Leu-Ala-OH (dissolved in 0.9% glacial acetic acid) and H-His-Ala-OH (dissolved in 50% methanol). The working concentrations of the agents were as follows: 0.1 μM camptothecin, 10 μM etoposide, 5 μg/ml aphidicolin, 40 mM hydroxyurea, 50 μM genistein, 40 μM LLnL and 4 μM Z-LLL. When the ubiquitin ligase (E3) inhibitors (H-Leu-Ala-OH and H-His-Ala-OH) were used, airway cells were pretreated with a combination of both inhibitors at a final concentration of 2 mM for 60 minutes prior to infection, followed by the continued presence of inhibitor (0.2 mM) during the entire 24 hours infection period from the basolateral surface. Studies involving EGTA treatment were performed by transiently treating the apical membrane of polarized airway epithelia with 3 mM EGTA in water for 10 minutes (Duan et al., 1998). Following hypotonic EGTA treatment, cultures were washed twice with culture medium and infected with rAAV in the presence or absence of 40 μM LLnL. Human primary fibroblast cells (P4) were maintained in 10% fetal bovine serum (FBS), 1% penicillin and streptomycin, and 89% DMEM. […]

[10] = test system: polarized human bronchial epithelial cells; conditions: hypotonic EGTA solution; cited from earlier work

COc1cccc2c1C(=O)c1c(O)c3c(c(O)c1C2=O)C[C@@](O)(C(=O)CO)C[C@@H]3O[C@H]1C[C@H](N)[C@H](O)[C@H](C)O1 [doxorubicin]
concentration at which transduction is enhanced [1]: 1 µM
concentration at which transduction is enhanced [2]: 1 µM
enhancement of transduction with lacZ splicing vectors ([2]; ferret fibroblasts infected with lacZ splicing vectors): about 100 fold
concentration at which transduction is enhanced [3]: 5 µM
increase of luciferase expression ([4]; 3 μg/mL, 100 ppc AAV2FLAG-Luc 2 hours, harvested 48 hours): 58 fold
outcome in cell line screening ([4]; HeLa screen): tested positive
enhancement of transduction from the apical surface [5]: 100 fold
concentration at which transduction is enhanced [5]: 5 µM
fraction of viral DNA in the nuclear compartment [6]: significantly increased the fraction of viral DNA in the nuclear compartment

N-acetyl-L-leucinyl-L-leucinal-L-norleucinal [LLnL]
toxicity (histologic evaluation of lung and liver, death of animals) [7]: No toxicity
concentration at which transduction is enhanced [1]: 40 µM
concentration at which transduction is enhanced [2]: 40 µM
concentration at which transduction is enhanced [3]: 200 to 400 µM
induction of transduction [8]: 10 fold
enhancement of transduction from the apical surface [5]: 10 fold
polarity of enhancement of AV2Luc and AV2/5Luc transduction ([5]; LLnL 40 μM, 5 and 14 days): only apical transduction for both AAV serotypes was enhanced
effect on AV2.RSVluc transduction ([5]; apical and basolateral infection): augments AV2.RSVluc transduction from the apical and basolateral surfaces
concentration at which transduction is enhanced [5]: 40 µM
increase of AV2.RSVlucCap5 transduction ([5]; virus applied to the apical surface): 12 fold
time of peak of augmentation in AAV transduction, mucosal co-administration ([9]; LLnL and rAAV to the mucosal surface): 22 days
augmentation in transgene expression ([9]; applied to the serosal surface along with rAAV, 2 days post infection, LLnL 40 μM): greater than 200 fold
toxicity to cells on continual administration ([9]; continual administration, transgene expression ablated by 10 days): toxic to cells
time of transient peak in gene expression, serosal infection ([9]; rAAV from the serosal surface in the presence of LLnL): 72 h
fraction of viral DNA in the nuclear compartment [6]: significantly increased the fraction of viral DNA in the nuclear compartment

O=C(O)CN(CCOCCOCCN(CC(=O)O)CC(=O)O)CC(=O)O [EGTA]
increase of AAV transduction from the apical surface [10]: 7 to 10 fold

From US7749491B2, “Compounds and methods to enhance rAAV transduction” (priority 2003, dated 2010)
